Results taken from paper PMC12164691 (Molecular Pharmacology, 2021).

What was measured:
TAS2R39 [1] = biological target: T1, TAS2R39 (Homo sapiens, UniProt P59534); experiment: Calcium mobilization in HEK293 cells expressing TAS2R39 and Gα16-gust44; antagonism of […] TAF (also of […] denatonium, IC50 […]); type: cell-based
T1 sequence (P59534 1-338): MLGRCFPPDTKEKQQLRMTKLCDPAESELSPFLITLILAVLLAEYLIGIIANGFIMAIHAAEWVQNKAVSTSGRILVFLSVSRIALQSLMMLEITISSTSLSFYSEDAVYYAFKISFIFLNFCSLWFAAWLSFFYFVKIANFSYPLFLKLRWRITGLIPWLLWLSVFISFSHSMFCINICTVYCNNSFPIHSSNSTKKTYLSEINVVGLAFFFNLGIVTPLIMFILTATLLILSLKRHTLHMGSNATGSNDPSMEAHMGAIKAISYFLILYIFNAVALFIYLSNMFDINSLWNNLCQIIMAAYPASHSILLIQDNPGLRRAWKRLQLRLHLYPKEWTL

TAS2R14 = TAS2R14 (Homo sapiens, UniProt Q9NYV8)
TAS2R39 [2] = biological target: T1, TAS2R39
TAS2R8 = TAS2R8 (Homo sapiens, UniProt Q9NYW2)
Chain of TAS2R8 (Q9NYW2 whole entry): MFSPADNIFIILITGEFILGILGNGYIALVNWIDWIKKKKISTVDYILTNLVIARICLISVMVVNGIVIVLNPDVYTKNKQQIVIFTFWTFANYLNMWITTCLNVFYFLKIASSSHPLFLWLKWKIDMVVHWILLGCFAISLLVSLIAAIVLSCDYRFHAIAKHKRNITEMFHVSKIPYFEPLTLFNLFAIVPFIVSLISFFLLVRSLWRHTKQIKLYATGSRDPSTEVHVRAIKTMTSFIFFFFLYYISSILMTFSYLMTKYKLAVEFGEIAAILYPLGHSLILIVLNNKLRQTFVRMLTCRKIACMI

Chain of TAS2R14 (Q9NYV8 whole entry): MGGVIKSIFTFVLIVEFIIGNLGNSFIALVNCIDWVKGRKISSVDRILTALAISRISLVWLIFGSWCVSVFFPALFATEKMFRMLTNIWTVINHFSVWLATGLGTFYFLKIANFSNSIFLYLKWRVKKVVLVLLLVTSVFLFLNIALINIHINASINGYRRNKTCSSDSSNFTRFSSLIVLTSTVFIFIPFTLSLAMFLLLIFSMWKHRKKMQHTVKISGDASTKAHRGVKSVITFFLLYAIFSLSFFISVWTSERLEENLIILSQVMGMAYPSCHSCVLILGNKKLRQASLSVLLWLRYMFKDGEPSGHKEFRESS

| SMILES | IC50 (TAS2R39 [1]) [µM] | Calcium mobilization in HEK293 cells expressing TAS2R14 and Gα16-gust44; concent (TAS2R14) | Calcium mobilization in HEK293 cells expressing TAS2R39 and Gα16-gust44; concent (TAS2R39 [2]) | Calcium mobilization in HEK293 cells expressing TAS2R8 and Gα16-gust44; concentr (TAS2R8) |
| --- | --- | --- | --- | --- |
| Cc1ccc2oc(-c3ccccc3)cc(=O)c2c1 [6-MF, 6-methylflavone] | 22 | – | – | – |
| CC(C)OC(=O)[C@H](C)N[P@](=O)(CO[C@H](C)Cn1cnc2c(N)ncnc21)Oc1ccccc1 [TAF, tenofovir alafenamide] | – | cells expressing TAS2R8 and TAS2R14 showed small but significant responses to TAF | TAF activates TAS2R1, TAS2R8, TAS2R14, and TAS2R39 concentration-dependently. | cells expressing TAS2R8 and TAS2R14 showed small but significant responses to TAF |
